Data reported in US8163779B2, “Glucokinase activators” (Takeda San Diego, Inc., priority 2006, dated 2012).
pEC50: −log10 of the molar value. Structures can show the parent of a compound that is named as a salt.

These molecules were tested against T1, glucokinase (GK) (Homo sapiens, UniProt P35557) (assay: enzymatic glucokinase activity assay (ATP consumption, KinaseGlo luminescence)). Settings: recombinant GK residues 12-465; 5 μM ATP, 5 mM Glucose; Kact = concentration that displays 50% of the maximal increase in GK activity; read-out: pKact.
T1 construct: I.D. No. 1 corresponds to residues 12-465 of glucokinase; made in house; host or cells: E. coli DH10b-T1r
T1 sequence (P35557 with tags, fused parts or gaps isoform P35557-2): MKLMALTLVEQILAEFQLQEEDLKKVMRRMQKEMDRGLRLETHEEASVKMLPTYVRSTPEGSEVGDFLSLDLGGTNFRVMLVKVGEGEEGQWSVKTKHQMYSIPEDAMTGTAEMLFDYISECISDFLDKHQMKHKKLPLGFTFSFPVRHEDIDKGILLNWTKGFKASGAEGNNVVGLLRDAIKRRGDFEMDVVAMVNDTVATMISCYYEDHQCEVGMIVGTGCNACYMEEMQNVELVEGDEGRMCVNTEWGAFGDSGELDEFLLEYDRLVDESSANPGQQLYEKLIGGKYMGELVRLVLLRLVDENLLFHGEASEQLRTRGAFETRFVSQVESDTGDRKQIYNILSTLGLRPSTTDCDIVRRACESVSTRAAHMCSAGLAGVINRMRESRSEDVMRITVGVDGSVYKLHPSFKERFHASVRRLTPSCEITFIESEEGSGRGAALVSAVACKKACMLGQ
Type: biochemical
Summary of the method: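 Activation was scored as ATP consumption, quantified by KinaseGlo luciferase luminescence after a 60 min room-temperature reaction. Reactions contained E. coli-expressed, purified GK, 5 μM ATP, 5 mM glucose, 10 mM MgCl2, 0.01% Brij35 and 2% DMSO at pH 7.2; pKact was fitted non-linearly.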

pEC50	SMILES
< 4.80	O=C(Nc1ncc(CN2CCOCC2)s1)C(CC1CCOCC1)n1ccc(S(=O)(=O)C2CC2)cc1=O (stereo not shown) [Example 145, 2-(4-(cyclopropylsulfonyl)-2-oxopyridin-1(2H)-yl)-N-(5-(morpholinomethyl)thiazol-2-yl)-3-(tetrahydro-2H-pyran-4-yl)propanamide]
< 4.80	Cc1cc(-c2ccccc2F)cc(=O)n1[C@@H](CC1CCCCC1)C(=O)Nc1nccs1 [Example 110, (S)-3-cyclohexyl-2-(4-(2-fluorophenyl)-6-methyl-2-oxopyridin-1(2H)-yl)-N-(thiazol-2-yl)propanamide]
4.80 to 5.80	O=C(Nc1nc2ccc(F)cc2s1)C(CC1CCOCC1)n1ccc(S(=O)(=O)C2CC2)cc1=O (stereo not shown) [Example 131, 2-(4-(cyclopropylsulfonyl)-2-oxopyridin-1(2H)-yl)-N-(6-fluorobenzo[d]thiazol-2-yl)-3-(tetrahydro-2H-pyran-4-yl)propanamide]
< 4.80	COc1ccc2nc(NC(=O)C(CC3CCOCC3)n3ccc(S(=O)(=O)CCCO)cc3=O)sc2n1 (stereo not shown) [Example 67, 2-(4-(3-hydroxypropylsulfonyl)-2-oxopyridin-1(2H)-yl)-N-(5-methoxythiazolo[5,4-b]pyridin-2-yl)-3-(tetrahydro-2H-pyran-4-yl)propanamide]
> 5.80	O=C(Nc1nccs1)[C@H](CC1CCCCC1)n1ccc(S(=O)(=O)C2CCCC2)cc1=O [Example 13, (S)-3-cyclohexyl-2-(4-(cyclopentylsulfonyl)-2-oxopyridin-1(2H)-yl)-N-(thiazol-2-yl)propanamide]
> 5.80	NC(=O)c1ccc(NC(=O)[C@H](CC2CCOCC2)n2ccc(S(=O)(=O)C3CCCC3)cc2=O)nc1 [Example 46, (S)-6-(2-(4-(cyclopentylsulfonyl)-2-oxopyridin-1(2H)-yl)-3-(tetrahydro-2H-pyran-4-yl)propanamido)nicotinamide]
< 4.80	O=C(Nc1ncc(F)s1)[C@@H](CC1CCOCC1)n1cc(Cl)c(S(=O)(=O)C2CC2)cc1=O [Example 197, (R)-2-(5-chloro-4-(cyclopropylsulfonyl)-2-oxopyridin-1(2H)-yl)-N-(5-fluorothiazol-2-yl)-3-(tetrahydro-2H-pyran-4-yl)propanamide]
> 5.80	Cc1cc(S(=O)(=O)c2cccc(Cl)c2)cc(=O)n1[C@@H](CC1CCOCC1)C(=O)Nc1ncc(F)s1 [Example 168, (S)2-(4-(3-chlorophenylsulfonyl)-6-methyl-2-oxopyridin-1(2H)-yl)-N-(5-fluorothiazol-2-yl)-3-(tetrahydro-2H-pyran-4-yl)propanamide]
> 5.80	Cc1cc(S(=O)(=O)C2CCCC2)cc(=O)n1C(CC1CCCCC1)C(=O)Nc1ncc(Cc2ccc(F)cc2)s1 (stereo not shown) [Example 82, 3-cyclohexyl-2-(4-(cyclopentylsulfonyl)-6-methyl-2-oxopyridin-1(2H)-yl)-N-(5-(4-fluorobenzyl)thiazol-2-yl)propanamide]
< 4.80	O=C(Nc1ccc(Cl)cn1)[C@@H](CC1CCOCC1)n1ccc(S(=O)(=O)C2CCCC2)cc1=O [Example 41, (R)-N-(5-chloropyridin-2-yl)-2-(4-(cyclopentylsulfonyl)-2-oxopyridin-1(2H)-yl)-3-(tetrahydro-2H-pyran-4-yl)propanamide]
4.80 to 5.80	O=C(Nc1nc2ccc(Cl)cc2s1)C(CC1CCOCC1)n1ccc(S(=O)(=O)C2CC2)cc1=O (stereo not shown) [Example 130, N-(6-chlorobenzo[d]thiazol-2-yl)-2-(4-(cyclopropylsulfonyl)-2-oxopyridin-1(2H)-yl)-3-(tetrahydro-2H-pyran-4-yl)propanamide]
> 5.80	Cc1cc(S(=O)(=O)C2CC2)cc(=O)n1[C@@H](CC1CCOCC1)C(=O)Nc1ncc(Cl)s1 [Example 172, (S)-N-(5-chlorothiazol-2-yl)-2-(4-(cyclopropylsulfonyl)-6-methyl-2-oxopyridin-1(2H)-yl)-3-(tetrahydro-2H-pyran-4-yl)propanamide]
< 4.80	Cc1cc(Br)cc(=O)n1[C@@H](CC1CCCCC1)C(=O)Nc1nccs1 [Example 61, (S)-2-(4-bromo-6-methyl-2-oxopyridin-1(2H)-yl)-3-cyclohexyl-N-(thiazol-2-yl)propanamide]
< 4.80	Cc1cc(S(=O)(=O)C2CC2)cc(=O)n1[C@H](CC1CCOCC1)C(=O)Nc1ncc(Cl)s1 [Example 173, (R)-N-(5-chlorothiazol-2-yl)-2-(4-(cyclopropylsulfonyl)-6-methyl-2-oxopyridin-1(2H)-yl)-3-(tetrahydro-2H-pyran-4-yl)propanamide]
> 5.80	Cc1cc(S(=O)(=O)c2cccc(F)c2)cc(=O)n1C(CC1CCOCC1)C(=O)Nc1ncc(Cl)s1 (stereo not shown) [Example 158, N-(5-chlorothiazol-2-yl)-2-(4-(3-fluorophenylsulfonyl)-6-methyl-2-oxopyridin-1(2H)-yl)-3-(tetrahydro-2H-pyran-4-yl)propanamide]
< 4.80	CS(=O)(=O)c1ccn(C(Cc2ccsc2)C(=O)Nc2ncc(Cl)s2)c(=O)c1 (stereo not shown) [Example 15, N-(5-chlorothiazol-2-yl)-2-(4-(methylsulfonyl)-2-oxopyridin-1(2H)-yl)-3-(thiophen-3-yl)propanamide]
4.80 to 5.80	Cc1cc(S(=O)(=O)C2CCS(=O)(=O)CC2)cc(=O)n1C(CC1CCCCC1)C(=O)Nc1ncc(F)s1 (stereo not shown) [Example 161, N-(5-fluorothiazol-2-yl)-2-(4-(1,1-dioxotetrahydrothiopyran-4-ylsulfonyl)-6-methyl-2-oxopyridin-1(2H)-yl)-3-cyclohexyipropanamide]
4.80 to 5.80	O=C(Nc1ncc(F)s1)[C@H](CC1CCOCC1)n1cc(Cl)c(S(=O)(=O)C2CC2)cc1=O [Example 198, (S)-2-(5-chloro-4-(cyclopropylsulfonyl)-2-oxopyridin-1(2H)-yl)-N-(5-fluorothiazol-2-yl)-3-(tetrahydro-2H-pyran-4-yl)propanamide]
4.80 to 5.80	O=C(Nc1nccs1)C(CC1CCOCC1)n1cc(S(=O)(=O)N2CCCC2)ccc1=O (stereo not shown) [Example 139, 2-(2-oxo-5-(pyrrolidin-1-ylsulfonyl)pyridin-1(2H)-yl)-3-(tetrahydro-2H-pyran-4-yl)-N-(thiazol-2-yl)propanamide]
< 4.80	N#Cc1cnc(NC(=O)[C@@H](CC2CCOCC2)n2ccc(S(=O)(=O)C3CCCC3)cc2=O)s1 [Example 56, (R)-N-(5-cyanothiazol-2-yl)-2-(4-(cyclopentylsulfonyl)-2-oxopyridin-1(2H)-yl)-3-(tetrahydro-2H-pyran-4-yl)propanamide]
> 5.80	Cc1cc(S(=O)(=O)Cc2cccs2)cc(=O)n1C(CC1CCOCC1)C(=O)Nc1ncc(Cl)s1 (stereo not shown) [Example 134, N-(5-chlorothiazol-2-yl)-2-(6-methyl-2-oxo-4-(thiophen-2-ylmethylsulfonyl)pyridin-1(2H)-yl)-3-(tetrahydro-2H-pyran-4-yl)propanamide]
4.80 to 5.80	COC(C)(C)c1cnc(NC(=O)[C@@H](CC2CCOCC2)n2ccc(S(=O)(=O)C3CC3)cc2=O)s1 [Example 132, (R)-2-(4-(cyclopropylsulfonyl)-2-oxopyridin-1(2H)-yl)-N-(5-(2-methoxypropan-2-yl)thiazol-2-yl)-3-(tetrahydro-2H-pyran-4-yl)propanamide]
4.80 to 5.80	Cc1cc(S(=O)(=O)C2CCS(=O)(=O)CC2)cc(=O)n1C(CC1CCCCC1)C(=O)Nc1ncc(Cl)s1 (stereo not shown) [Example 160, N-(5-chlorothiazol-2-yl)-2-(4-(1,1-dioxotetrahydrothiopyran-4-ylsulfonyl)-6-methyl-2-oxopyndin-1(2H)-yl)-3-cyclohexylpropanamide]
< 4.80	Cc1cc(S(C)(=O)=O)cc(=O)n1C(CC1CCOCC1)C(=O)Nc1nccs1 (stereo not shown) [Example 7, 2-(6-methyl-4-(methylsulfonyl)-2-oxopyridin-1(2H)-yl)-3-(tetrahydro-2H-pyran-4-yl)-N-(thiazol-2-yl)propanamide trifluoroacetic acid salt]
4.80 to 5.80	COc1ccc2nc(NC(=O)C(CC3CCOCC3)n3ccc(S(=O)(=O)C4CC4)cc3=O)sc2c1 (stereo not shown) [Example 127, 2-(4-(cyclopropylsulfonyl)-2-oxopyridin-1(2H)-yl)-N-(6-methoxybenzo[d]thiazol-2-yl)-3-(tetrahydro-2H-pyran-4-yl)propanamide]
< 4.80	Cc1occc1S(=O)(=O)c1cc(C)n([C@H](CC2CCOCC2)C(=O)Nc2ncc(Cl)s2)c(=O)c1 [Example 65, (R)-N-(5-chlorothiazol-2-yl)-2-(6-methyl-4-(2-methylfuran-3-ylsulfonyl)-2-oxopyridin-1(2H)-yl)-3-(tetrahydro-2H-pyran-4-yl)propanamide]
> 5.80	COc1ccc2nc(NC(=O)[C@H](CC3CCOCC3)n3ccc(S(=O)(=O)C4CC4)cc3=O)sc2n1 [Example 49, (S)-2-(4-(cyclopropylsulfonyl)-2-oxopyridin-1(2H)-yl)-N-(5-methoxythiazolo[5,4-b]pyridin-2-yl)-3-(tetrahydro-2H-pyran-4-yl)propanamide]
4.80 to 5.80	Cc1cc(S(=O)(=O)C2CCCC2)cc(=O)n1C(CC1CCOCC1)C(=O)Nc1nccs1 (stereo not shown) [Example 16, 2-(4-(cyclopentylsulfonyl)-6-methyl-2-oxopyridin-1(2H)-yl)-3-(tetrahydro-2H-pyran-4-yl)-N-(thiazol-2-yl)propanamide]
